Measured values published in ChEMBL document CHEMBL4825724, “Synthesis and biological evaluation of platensic alcohol as an adamantane surrogate in antitumor drug lead adaphostin” (Bioorg Med Chem Lett, 2021).
≈ marks a conversion by molar mass, not a printed value. Calls of active or inactive are those of the source. The calls are words filed in the database; no cut-off is given here.

Tests used:
A549 = assay: Cytotoxicity against human A549 cells assessed as cell growth inhibition measured after 72 hrs by CCK8 assay; assay type: functional, cell-based; details: A549, 72 h
Caco-2 = assay: Cytotoxicity against human Caco-2 cells assessed as cell growth inhibition measured after 72 hrs by CCK8 assay; assay type: functional, cell-based; details: Caco-2, 72 h
[1] = Cytotoxicity against human KPL-4 cells assessed as cell growth inhibition measured after 72 hrs by CCK8 assay; assay type: functional, cell-based; details: KPL4, 72 h
Jurkat [2] = assay: Cytotoxicity against human Jurkat cells assessed as cell growth inhibition measured after 72 hrs by CCK8 assay; assay type: functional, cell-based
Jurkat [3] = assay: Induction of ROS generation in human Jurkat cells at 1 uM measured after 2 hrs by DCFH-DA staining based flourescence assay relative to H2O2; assay type: functional, cell-based
Jurkat [4] = assay: Antagonistic cytotoxicity against human Jurkat cells assessed as decrease in cell viability at 0.1 to 25 uM measured after 72 hrs in presence of vorinostat; assay type: functional, cell-based; details: dose 0.1-25 µM
[5] = Half life in human serum incubated up to 24 hrs by HPLC analysis; assay type: ADME, cell-free
Staphylococcus aureus = assay: Antibacterial activity against methicillin-resistant Staphylococcus aureus; assay type: functional
Jurkat [6] = assay: Induction of ROS generation in human Jurkat cells at 5 uM measured after 4 hrs by DCFH-DA staining based flourescence assay relative to H2O2; assay type: functional, cell-based
Jurkat [7] = assay: Induction of ROS generation in human Jurkat cells assessed as increase in intracellular ROS level measured after 4 hrs in presence of vorinostat; assay type: functional, cell-based

Structure (SMILES) | IC50 (A549) [µM] | IC50 (Caco-2) [µM] | IC50 [1] [µM] | IC50 (Jurkat [2]) [µM] | Activity (Jurkat [3]) | Activity (Jurkat [4]) | half-life [5] [h] | MIC (Staphylococcus aureus) [µg/mL] | Activity (Jurkat [6]) | Activity (Jurkat [7])
O=C(NNC(=O)C12CC3CC(CC(C3)C1)C2)c1ccc(NCc2cc(O)ccc2O)cc1 | > 100 | > 100 | > 100 | 16 |  |  |  |  |  | 
O=C(OC12CC3CC(CC(C3)C1)C2)c1ccc(NCc2cc(O)ccc2O)cc1 | 20.1 | 8 | 4.6 | 3.1 | Active | inactive | 12 |  |  | 
C[C@@]1(CCC(=O)Nc2c(O)ccc(C(=O)O)c2O)C(=O)C=CC23CC4CC(CC(C4)C21)C3 (stereo not given in full) |  |  |  |  |  |  |  | 1.3 (≈ 2.96 µM) |  | 
COC(=O)c1ccc(NCc2cc(O)ccc2O)cc1 | 23.2 | 15.1 | 15.6 | 13.1 |  |  | 3 |  |  | 
C[C@]12C[C@@]34C=CC(=O)[C@@](C)(CCC(=O)Nc5c(O)ccc(C(=O)O)c5O)[C@@H]3[C@H](C[C@@H]1C4)O2 |  |  |  |  |  |  |  | 0.2 (≈ 0.453 µM) |  | 
O=C(O)c1ccc(NCc2cc(O)ccc2O)cc1 | > 100 | 49.8 | > 100 | 20.4 |  |  |  |  |  | 
CC12CC34CC[C@H](OC(=O)c5ccc(NCc6cc(O)ccc6O)cc5)[C@@](C)(CCCOC(=O)c5ccc(NCc6cc(O)ccc6O)cc5)C3C(CC1C4)O2 (stereo not given in full) | 9.6 | 7 | 7.7 | 5 | Active | Active | 12 |  | Active | Active
CC12CC34CC[C@H](O)[C@@](C)(CCCO)C3C(CC1C4)O2 (stereo not given in full) | 35.9 | 37.5 | 2.7 | 7.3 |  |  | 5 |  |  | 
CC12CC34C=CC(=O)[C@@](C)(CCC(=O)NNC(=O)c5ccc(NCc6cc(O)ccc6O)cc5)C3C(CC1C4)O2 (stereo not given in full) | > 100 | 65.2 | > 100 | > 100 |  |  |  |  |  | 
